Measured values taken from PMC11705955, “Lack of activity of HIV-1 integrase strand-transfer inhibitors on recombinase activating gene (RAG) activity at clinically relevant concentrations” (Microbiology Spectrum, 2024).
Blank lines part the entries; values can stand above or below the molecule they belong to.

Key:
[1] = system: murine mCherry-core RAG1 / mCherry-RAG2 V(D)J recombination in Expi293F cells; assay: Extrachromosomal cell-based V(D)J recombination assay (GFP reporter, flow cytometry)
Source text: To further evaluate the effect of HIV-1 integrase inhibitors on RAG activity in a cellular context, we optimized a novel extrachromosomal cell-based V(D)J recombination assay, enabling assessment of multiple compounds in a dose–response manner by flow cytometry ([33]). The schematic of FL murine RAG1 and RAG2 proteins, including the active site residues (DDE motif) in RAG1 and catalytically essential core regions of each protein, are shown in Fig. 5A. The cell-based assay used vectors that encode for the core RAG1 protein (instead of the FL version) and FL murine RAG2 expressed as C-terminal fusions to mCherry, termed mCherry-core RAG1 and mCherry-RAG2. The core regions of each RAG protein are sufficient to catalyze V(D)J recombination, whereas the non-core regions function to regulate the recombination reaction ([13]). […] The consensus RSS used in this assay contains a conserved heptamer and nonamer separated by 12 or 23 non-conserved bp (12RSS and 23RSS) (Fig. 5B). A general schematic of the design for the plasmid substrate with the 12RSS and 23RSS orientations before and after V(D)J recombination is presented in Fig. 5C. More specifically, the plasmid substrate pMAXgfp-INV was designed with a 12RSS and a 23RSS flanking each side of the Pontellina plumata green fluorescent protein gene (termed maxGFP), where the gene is in an inverted orientation relative to the CMV promoter (Fig. 5D). The RSSs are positioned in a co-linear orientation, such that successful V(D)J recombination activity will result in inversion of the maxGFP gene to place it in a transcriptionally active orientation with resulting expression of GFP. Detection of GFP-expressing cells using microscopy and flow cytometry was used as a direct readout of V(D)J recombination activity.
For the recombination assay, the pMAXgfp-INV plasmid substrate and RAG1/RAG2 expression vectors (mCherry-core RAG1 and mCherry-RAG2) were transiently transfected into Expi293 cells in the absence or presence of integrase inhibitors and were assessed via microscopy and flow cytometry. The fluorescence signal from the mCherry-tag is used to assess transfection efficiency of RAG1/RAG2 vectors (Fig. 6A). We observed that transfection of the pMAXgfp-INV substrate into Expi293 cells with RAG1/RAG2 expression vectors yielded robust GFP expression 48 h post-transfection in the cells treated with vehicle control (0.1% dimethyl sulfoxide [DMSO]) (Fig. 6A). […] NU7026 inhibits double-strand break repair, which is a necessary step after DNA cleavage by RAG enzymes, and thus serves as an indirect inhibitor of RAG activity ([35]).
To test the effect of HIV-1 integrase inhibitors on V(D)J recombination activity, we optimized an extrachromosomal cell-based V(D)J recombination assay ([33]). Briefly, Expi293 cells were plated at 1 × 10^6 cells/mL in six-well plates in Gibco Expi293 expression media the day before transfection. The next day, the Expi293 cells were co-transfected with three separate vectors, pMAXgfp-INV plasmid substrate, mCherry-core RAG1, and mCherry-RAG2 expression vectors with a 4:1 transfection reagent:DNA ratio using ExpiFectamine 293 transfection reagent (Gibco). Vehicle or candidate inhibitors were added to cell samples 2 h after transfection, with six different concentrations of each inhibitor added to separate wells. Fivefold dilutions for each inhibitor starting from 10 µM were tested.
Experiments were performed with six separate inhibitors in at least three independent experiments. Two negative control conditions for recombination activity were performed in parallel and include (i) transfections in the presence of NU7026 at 30 and 50 µM (Abcam) and (ii) using a modified pMAXgfp-INV substrate containing two 12RSSs (instead of one 12RSS and one 23RSS) that is inefficiently recombined by the RAG proteins. Vehicle control (0.1% DMSO) served as the positive control for GFP expression. The fluorescence signal from the mCherry tag was used to assess transfection efficiency. […]

[2] = 5-day cytotoxicity assay with Cell Titer Glo readout, MRC5; assay type: cell-based; conditions: human
Source text: (§1) Supplemental Table S2. CC50 values for INSTIs in 5- day cytotoxicity as says with Cell Titer
(§2) Expi293F GALPC3 GALHEP HUH7 MRC5 MT4 PBMC PBMC
(§3) Kidney Prostate Hepatoma Hepatoma Lung T-cell line Primary Primary
(§4) (embryonic) cancer cell cell line cell line fibroblast cells

[3] = 5-day cytotoxicity assay with Cell Titer Glo readout, MT4; assay type: cell-based; conditions: human
Source text: as §1, §2, §3, §4

[4] = 5-day cytotoxicity assay with Cell Titer Glo readout, PBMC; assay type: cell-based; conditions: CC50
Source text: as §1, §2, §3, §4

[5] = system: PBMC primary cells; assay: as above; assay type: cell-based; conditions: 5 day
Source text: as §1, §2, §3, §4

[6] = 5-day cytotoxicity assay with Cell Titer Glo readout, GALHEPG2; assay type: cell-based; conditions: human
Source text: as §1, §2, §3, §4

[7] = 5-day cytotoxicity assay with Cell Titer Glo readout, HUH7; assay type: cell-based; conditions: human
Source text: as §1, §2, §3, §4

[8] = 5-day cytotoxicity assay with Cell Titer Glo readout, GALPC3; assay type: cell-based; conditions: human
Source text: as §1, §2, §3, §4

[9] = molecular target: T1, recombinant human core RAG1 (AA387-1011)/core RAG2 (AA1-387) in the presence of HMGB1 (Homo sapiens, UniProt P15918+P55895); assay: Biochemical RAG DNA cleavage assay (gel-based, dsDNA 12RSS/23RSS substrate); conditions: 25 nM RAG1-RAG2, 575 nM HMGB1, 10 nM dsDNA, 5 mM MgCl2, 1 h 37°C, no serum
T1 construct: made in house; host or cells: RAG1/RAG2 co-expressed in Expi293F GnTI human cells; HMGB1 in E. coli BL21DE3
T1 sequence (P15918 387-1011): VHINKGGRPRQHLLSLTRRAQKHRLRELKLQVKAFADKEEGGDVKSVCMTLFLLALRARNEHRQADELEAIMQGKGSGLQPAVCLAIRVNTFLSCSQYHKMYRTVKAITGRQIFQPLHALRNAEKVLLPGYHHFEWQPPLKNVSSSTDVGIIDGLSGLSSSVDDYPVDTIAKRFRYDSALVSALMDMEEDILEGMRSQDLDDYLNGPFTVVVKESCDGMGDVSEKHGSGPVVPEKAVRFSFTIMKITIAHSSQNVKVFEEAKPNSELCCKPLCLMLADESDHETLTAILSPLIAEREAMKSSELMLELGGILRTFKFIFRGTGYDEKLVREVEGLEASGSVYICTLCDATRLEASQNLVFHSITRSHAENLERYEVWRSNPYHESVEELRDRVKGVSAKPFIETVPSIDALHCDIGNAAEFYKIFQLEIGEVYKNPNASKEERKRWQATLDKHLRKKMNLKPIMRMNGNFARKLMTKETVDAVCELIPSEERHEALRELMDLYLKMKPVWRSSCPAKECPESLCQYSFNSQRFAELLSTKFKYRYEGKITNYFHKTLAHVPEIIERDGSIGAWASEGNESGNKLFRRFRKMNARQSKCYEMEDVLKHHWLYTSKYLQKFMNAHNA
T1 sequence (P55895 1-387): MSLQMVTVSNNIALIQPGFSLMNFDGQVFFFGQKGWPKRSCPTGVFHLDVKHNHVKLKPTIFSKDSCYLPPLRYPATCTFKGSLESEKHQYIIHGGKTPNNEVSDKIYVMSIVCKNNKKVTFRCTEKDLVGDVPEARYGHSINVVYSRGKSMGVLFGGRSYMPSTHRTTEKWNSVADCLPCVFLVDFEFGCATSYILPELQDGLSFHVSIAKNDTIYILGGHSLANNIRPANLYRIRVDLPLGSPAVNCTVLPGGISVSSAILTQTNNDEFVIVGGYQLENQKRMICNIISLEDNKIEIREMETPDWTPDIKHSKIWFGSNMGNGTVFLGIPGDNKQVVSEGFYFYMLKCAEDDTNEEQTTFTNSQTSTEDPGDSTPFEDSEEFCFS
Source text: To directly observe the potential inhibition of RAG1/RAG2, we measured the effect of INSTIs on DNA cleavage by RAG1/RAG2 in the presence of HMGB1. This biochemical system utilizes pre-assembled recombinant human core RAG1 (AA387-1011)/core RAG2 (AA1-387) in the presence of excess truncated HMGB1 (AA1-163) and a linear dsDNA RSS substrate, using gel electrophoresis and a fluorescent dye to monitor cleavage products (Fig. 2A) ([24]). The dsDNA RSS substrate, containing both the 12RSS and 23RSS, was designed to have the different cleavage products resolved via gel electrophoresis. RAG1/RAG2 can singly cleave either the 12RSS or the 23RSS, or both, leading to potentially five different products in the reaction (Fig. 2B). HMGB1 orients RAG1/RAG2 for proper binding to the RSS substrate ([16]). We quantified the activity of RAG as the percentage of substrate conversion to a specific cleaved product, as separated by agarose gel electrophoresis and determined by the DNA-binding fluorescent dye. With the 569-bp substrate, a single cleavage of the 12RSS results in a 492-bp dsDNA and a 77-bp hairpin. Cleavage of the 23RSS alone produces a 433-bp dsDNA and a 136-bp hairpin. Successful cleavage of both RSSs results in a 356-bp dsDNA and both of the 77- and 136-bp hairpins. For the RAG activity analysis, we measured the amount of double cleaved product (356 bp) in relation to the amount of substrate (569 bp) at the end of the reaction. The optimal concentrations of RAG1/RAG2, HMGB1, and MgCl2 were determined through titration (Fig. S2). Because there is no direct RAG1/RAG2 inhibitor previously characterized, we used suramin, a polyanionic compound commonly used as a non-specific inhibitor for DNA/RNA binding or processing proteins as a control for inhibition ([25], [26]).
Prior to the cleavage assay, compounds at the designated concentrations were spotted into 96-well plates using the Tecan Digital D300e (Tecan, Mannedorf, Switzerland). RAG1/RAG2 was incubated with HMGB1 and MgCl2 on ice for at least 15 min in a reaction buffer (25-mM 3-(N-morpholino)propanesulfonic acid [MOPS], pH 7.0, 50-mM KCl, and 2-mM DTT). After the initial incubation, the enzyme solution was added to the compound plates and incubated for an additional 15 min at room temperature. dsDNA substrate in reaction buffer was added to the plates to initiate the reaction. The final conditions of the reaction are 25-nM RAG1–RAG2 complex, 575-nM HMGB1, 10-nM dsDNA substrate, and 5-mM MgCl2. After 1 h at 37°C, reactions were quenched by the addition of final concentrations of 0.19% SDS, 45.5-µg/mL Proteinase K, and 60-mM EDTA.
Glycerol was added to a final concentration of 7.6% in each sample, and samples were loaded onto non-denaturing 6% Tris–borate–EDTA (TBE) gels in 1× TBE buffer. The samples were run at 100 V for 1.5 h, and gels were stained with 1× SYBR Gold in 1× TBE for 20 min. The stained gels were imaged with an Amersham Typhoon Biomolecular Imager.
The gel images were analyzed using ImageQuant software (Cytiva). The densities of the 569-bp-length substrate and fully cleaved 356-bp-length product were quantified. The product density was divided by the sum of substrate and product bands to obtain a percent product value. These calculated values were subtracted from a negative control (pre-quenched reaction where EDTA was added before reaction was initiated) and then normalized to the DMSO-treated control. The normalized data were plotted against concentration using GraphPad Prism (version 9.3; GraphPad Software, San Diego, CA, USA).

[10] = molecular target: T2, human core RAG1 (AA387-1011), MBP-10N-PreScission-RAG1 (human, UniProt P15918-1 387-1011); assay: SEC; analytical SEC-HPLC, Superdex 200 Increase 5/150 GL column, 10-µg protein sample; co-expressed and co-purified MBP-tagged core RAG1 and core RAG2; conditions: both partners purified
T2 construct: also called RAG1 core domain; source: Expi293F GnTI cells, plasmids transfected (co-expressed with core RAG2), purified (MBP-Trap, Superdex 200); not shown: MBP, N-terminal, kept
T2 sequence (looked up): T1 sequence (P15918 387-1011)

IC50 ([1]; compound added 2 h after transfection, read 48 h post-transfection, serum-free media, read-out: IC50 in cellular V(D)J recombination assay (% GFP-positive cells)): 41500 ± 9400 nM
Molecule: O=c1cc(N2CCOCC2)oc2c1ccc1ccccc12 [NU7026]
Effect on percentage of GFP-positive cells / RAG recombination ([1]; across concentrations tested, 48 h post-transfection): dose-dependent decrease in percentage of GFP-positive cells

Molecule: COc1ccc(C[C@H](N)C(=O)N[C@H]2[C@@H](O)[C@H](n3cnc4c(N(C)C)ncnc43)O[C@@H]2CO)cc1 [Puromycin]
CC50 at 5 day [2]: 310 nM
CC50 at 5 day [3]: 210 nM
CC50 at 5 day [4]: 540 nM
CC50 [5]: 500 nM
CC50 at 5 day [6]: 410 nM
CC50 at 5 day [7]: 320 nM
CC50 at 5 day [8]: 390 nM

IC50 [9]: 4500 ± 400 nM
Molecule: Cc1ccc(C(=O)Nc2ccc(S(=O)(=O)O)c3cc(S(=O)(=O)O)cc(S(=O)(=O)O)c23)cc1NC(=O)c1cccc(NC(=O)Nc2cccc(C(=O)Nc3cc(C(=O)Nc4ccc(S(=O)(=O)O)c5cc(S(=O)(=O)O)cc(S(=O)(=O)O)c45)ccc3C)c2)c1 [Suramin]

binding result [10]: binds
B1: human core RAG2 (AA1-387), MBP-5A-RAG2 (domain or fragment, UniProt P55895 1-387, looked up)
chain: T1 sequence (P55895 1-387)
notes: also called RAG2 core domain; source: Expi293F GnTI cells, plasmids transfected (co-expressed with core RAG1), purified (MBP-Trap, Superdex 200); not shown: MBP, N-terminal, kept
